Laboratory results: the NIST ThermoML archive (doi:10.1016/j.jct.2005.03.019)
Several values for one entry are separate records, joined by “and”; a condition that tells them apart may be missing. Equal values may be shown once. ± gives the expanded uncertainty stated by the source.

Tests used:
[1] = 101 kPa, Liquid, Vibrating tube method
[2] = refractive index (Na D-line) (dimensionless); conditions: 101.33 kPa, Liquid, Standard Abbe refractometry
[3] = xn = mol fraction of the nth substance listed; conditions: 101 kPa, Liquid, Vibrating tube method

SMILES | mass density ([1]; 293.15 K) [kg/m3] | mass density ([1]; 303.15 K) [kg/m3] | mass density ([1]; 313.15 K) | mass density ([1]; 323.15 K) [kg/m3] | mass density ([1]; 333.15 K) [kg/m3] | mass density ([1]; 343.15 K) [kg/m3] | mass density ([1]; 353.15 K) [kg/m3] | refractive index ([2]; 298.15 K) | mass density ([3]; 293.15 K, x1 = 1) [kg/m3] | mass density ([3]; 303.15 K, x1 = 1) [kg/m3] | mass density ([3]; 313.15 K, x1 = 1) [kg/m3] | mass density ([3]; 323.15 K, x1 = 1) [kg/m3] | mass density ([3]; 333.15 K, x1 = 1) [kg/m3] | further results
CC1COC(=O)O1 (stereo not drawn) [4-methyl-1,3-dioxolan-2-one] | 1200.3 ± 0.1 | 1180.6 ± 0.1 | 1161.3 ± 0.1 kg/m3 and 1161.2 ± 0.1 kg/m3 | 1142.4 ± 0.1 | 1124 ± 0.1 | 1106 ± 0.1 | 1088.4 ± 0.1 |  |  |  |  |  |  | refractive index ([2]; 293.15 K): 1.42095 ± 0.0004
CC1COC(=O)O1 (stereo not drawn) [4-methyl-1,3-dioxolan-2-one] + C=Cc1ccccc1 |  |  |  |  |  |  |  |  |  |  |  |  |  | mass density ([3]; 293.15 K, x2 = 0): 1200.3 ± 0.1 kg/m3; mass density ([3]; 303.15 K, x2 = 0): 1180.6 ± 0.1 kg/m3; mass density ([3]; 313.15 K, x2 = 0): 1161.2 ± 0.1 kg/m3; mass density ([3]; 333.15 K, x2 = 0): 1124 ± 0.1 kg/m3; mass density ([3]; 343.15 K, x2 = 0): 1106 ± 0.1 kg/m3; mass density ([3]; 353.15 K, x2 = 0): 1088.4 ± 0.1 kg/m3
c1ccccc1 [benzene] | 877.8 ± 0.1 | 868 ± 0.1 | 857.9 ± 0.1 kg/m3 | 847.4 ± 0.1 | 836.6 ± 0.1 | 825.4 ± 0.1 | 813.9 ± 0.1 | 1.5009 ± 0.0004 |  |  |  |  |  | 
c1ccccc1 [benzene] + CC1COC(=O)O1 |  |  |  |  |  |  |  |  | 877.8 ± 0.1 | 868 ± 0.1 | 857.9 ± 0.1 | 847.4 ± 0.1 | 836.6 ± 0.1 | mass density ([3]; 343.15 K, x1 = 1): 825.4 ± 0.1 kg/m3; mass density ([3]; 353.15 K, x1 = 1): 813.9 ± 0.1 kg/m3
CCc1ccccc1 [ethylbenzene] | 867.8 ± 0.2 | 858.6 ± 0.2 | 851.8 ± 0.2 kg/m3 | 847.6 ± 0.2 | 845.8 ± 0.2 |  |  | 1.4962 ± 0.0005 |  |  |  |  |  | 
CCc1ccccc1 [ethylbenzene] + CC1COC(=O)O1 |  |  |  |  |  |  |  |  | 867.8 ± 0.2 | 858.6 ± 0.2 | 851.8 ± 0.2 | 847.6 ± 0.2 | 845.8 ± 0.2 | 
C=Cc1ccccc1 [styrene] | 906 ± 4.5 | 896.4 ± 4.4 | 886.9 ± 4.3 kg/m3 | 877.3 ± 4.2 | 867.8 ± 4.1 | 858.2 ± 4 | 848.6 ± 4 | 1.546 ± 0.0011 |  |  |  |  |  | 
Cc1ccccc1 [toluene] | 866.8 ± 0.1 | 857.5 ± 0.1 | 848.2 ± 0.1 kg/m3 | 838.9 ± 0.1 | 829.5 ± 0.1 | 820 ± 0.1 | 810.5 ± 0.1 | 1.4965 ± 0.0004 |  |  |  |  |  | 
Cc1ccccc1 [toluene] + CC1COC(=O)O1 |  |  |  |  |  |  |  |  | 866.8 ± 0.1 | 857.5 ± 0.1 | 848.2 ± 0.1 | 838.9 ± 0.1 | 829.5 ± 0.1 | mass density ([3]; 343.15 K, x1 = 1): 820 ± 0.1 kg/m3; mass density ([3]; 353.15 K, x1 = 1): 810.5 ± 0.1 kg/m3
